Measured values reported in PMC7554340, “A Novel Dual-Targeted α-Helical Peptide With Potent Antifungal Activity Against Fluconazole-Resistant Candida albicans Clinical Isolates” (Frontiers in Microbiology, 2020).
Where two headings read alike, the source gives them in different places. No end group written: not given here.

How the values were obtained:
C. albicans cgmcc 2.2086 = assay: Antifungal activity assay (broth microdilution, MIC/MFC); format: cell-based, Candida albicans; settings: for MFC: 50 μl of MIC wells plated on YPD agar, 28°C, lowest concentration that completely killed fungal cells, consensus of at least three independent experiments
[1] = tested on: C. tropicalis cgmcc 2.1975; assay: as above; format: cell-based, Candida tropicalis; settings: for MFC: 50 μl of MIC wells plated on YPD agar, 28°C, lowest concentration that completely killed fungal cells, consensus of at least three independent experiments
[2] = tested on: C. parapsilosis cgmcc 2.3989; assay: as above; format: cell-based, Candida parapsilosis; settings: for MFC: 50 μl of MIC wells plated on YPD agar, 28°C, lowest concentration that completely killed fungal cells, consensus of at least three independent experiments
C. albicans 56452 [3] = assay: microbe, parasite or virus in culture; settings: Candida albicans, 56452, 48 h
C. albicans 56214 [4] = assay: microbe, parasite or virus in culture; settings: Candida albicans, 56214, 48 h
C. albicans 14936 [5] = assay: microbe, parasite or virus in culture; settings: Candida albicans, 14936, 48 h
C. albicans 17546 [6] = assay: microbe, parasite or virus in culture; settings: Candida albicans, 17546, 48 h
C. albicans 58288 [7] = assay: microbe, parasite or virus in culture; settings: Candida albicans, 58288, 48 h
C. albicans sp3902 [8] = assay: microbe, parasite or virus in culture; settings: Candida albicans, SP3902, 48 h
C. albicans sp3903 [9] = assay: microbe, parasite or virus in culture; settings: Candida albicans, SP3903, 48 h
C. albicans sp3931 [10] = assay: microbe, parasite or virus in culture; settings: Candida albicans, SP3931, 48 h
C. albicans sp3876 [11] = assay: microbe, parasite or virus in culture; settings: Candida albicans, SP3876, 48 h
C. albicans 56452 [12] = settings: 56452, 48 h; for MIC: pH 7
C. albicans 56214 [13] = settings: 56214, 48 h; for MIC: pH 7
C. albicans 14936 [14] = settings: 14936, 48 h; for MIC: pH 7
C. albicans 17546 [15] = settings: 17546, 48 h; for MIC: pH 7
C. albicans 58288 [16] = settings: 58288, 48 h; for MIC: pH 7
C. albicans sp3902 [17] = settings: sp3902, 48 h; for MIC: pH 7
C. albicans sp3903 [18] = settings: sp3903, 48 h; for MIC: pH 7
C. albicans sp3931 [19] = settings: sp3931, 48 h; for MIC: pH 7
C. albicans sp3876 [20] = settings: sp3876, 48 h; for MIC: pH 7
human erythrocytes = settings: red cells of human, 1 h
IPEC-J2 cells = settings: 24 h
PMEC cells = settings: 24 h

C[C@@H]1[C@H](O)[C@@H](C)/C=C/C=C/C=C/C=C/C=C/C=C/C=C/[C@H](O[C@@H]2O[C@H](C)[C@@H](O)[C@H](N)[C@@H]2O)C[C@@H]2O[C@](O)(C[C@@H](O)C[C@@H](O)[C@H](O)CC[C@@H](O)C[C@@H](O)CC(=O)O[C@H]1C)C[C@H](O)[C@H]2C(=O)O [AmB, amphotericin B]
2 µM: MFC ([1]; Candida tropicalis, CGMCC2, 48 h) | MFC ([2]; Lodderomyces parapsilosis, CGMCC2, 48 h) | MIC ([2]; Lodderomyces parapsilosis, CGMCC2, broth microdilution, RPMI-MOPS pH 7.0, 28°C, 48 h, lowest concentration inhibiting 99% of growth (A492)) | MFC (C. albicans 56452 [3]) | MFC (C. albicans 56214 [4])
1 µM: MFC (C. albicans cgmcc 2.2086; Candida albicans, CGMCC2, 48 h) | MIC (C. albicans cgmcc 2.2086; Candida albicans, CGMCC2, broth microdilution, RPMI-MOPS pH 7.0, 28°C, 48 h, lowest concentration inhibiting 99% of growth (A492)) | MIC ([1]; Candida tropicalis, CGMCC2, broth microdilution, RPMI-MOPS pH 7.0, 28°C, 48 h, lowest concentration inhibiting 99% of growth (A492)) | MIC (C. albicans 56452 [3]; pH 7) | MIC (C. albicans 56214 [4]; pH 7) | MFC (C. albicans 17546 [6]) | MFC (C. albicans 58288 [7]) | MFC (C. albicans sp3902 [8]) | MFC (C. albicans sp3903 [9]) | MFC (C. albicans sp3931 [10])
0.5 µM: MFC (C. albicans 14936 [5]) | MIC (C. albicans 58288 [7]; pH 7) | MFC (C. albicans sp3876 [11])
0.25 µM: MIC (C. albicans 14936 [5]; pH 7) | MIC (C. albicans 17546 [6]; pH 7) | MIC (C. albicans sp3902 [8]; pH 7) | MIC (C. albicans sp3931 [10]; pH 7) | MIC (C. albicans sp3876 [11]; pH 7)
0.13 µM: MIC (C. albicans sp3903 [9]; pH 7)

KIGKFLLFKGIKKIGKFL-NH2 [KF3]
32 µM: MFC (C. albicans cgmcc 2.2086; 48 h) | MIC (C. albicans cgmcc 2.2086; cgmcc 2.2086, 48 h, pH 7) | MFC ([2]; 48 h) | MIC ([2]; cgmcc 2.3989, 48 h, pH 7) | MFC (C. albicans 58288 [16]) | MIC (C. albicans 58288 [16]) | MFC (C. albicans sp3903 [18]) | MIC (C. albicans sp3903 [18]) | MFC (C. albicans sp3931 [19]) | MIC (C. albicans sp3931 [19])
48.5 µM: IC50 (IPEC-J2 cells)
>64 µM: HC10 (human erythrocytes)
60 µM: IC50 (PMEC cells)
16 µM: MFC (C. albicans 56452 [12]) | MIC (C. albicans 56452 [12]) | MFC (C. albicans 56214 [13]) | MIC (C. albicans 56214 [13]) | MFC (C. albicans sp3902 [17]) | MIC (C. albicans sp3902 [17])
64 µM: MFC (C. albicans 14936 [14]) | MIC (C. albicans 14936 [14]) | MFC (C. albicans 17546 [15]) | MIC (C. albicans 17546 [15]) | MFC (C. albicans sp3876 [20]) | MIC (C. albicans sp3876 [20])
sharp rise in cytotoxicity: cytotoxicity at 64 μM (in words) (IPEC-J2 and PMEC cells)
8 µM: MFC ([1]; 48 h) | MIC ([1]; cgmcc 2.1975, 48 h, pH 7)

KIGKVL-NH2 [KV]
>64 µM: MFC (C. albicans cgmcc 2.2086; 48 h) | MIC (C. albicans cgmcc 2.2086; cgmcc 2.2086, 48 h, pH 7) | MFC ([1]; 48 h) | MIC ([1]; cgmcc 2.1975, 48 h, pH 7) | MFC ([2]; 48 h) | MIC ([2]; cgmcc 2.3989, 48 h, pH 7) | MFC (C. albicans 56452 [12]) | MIC (C. albicans 56452 [12]) | MFC (C. albicans 56214 [13]) | MIC (C. albicans 56214 [13]) | MFC (C. albicans 14936 [14]) | MIC (C. albicans 14936 [14]) | MFC (C. albicans 17546 [15]) | MIC (C. albicans 17546 [15]) | MFC (C. albicans 58288 [16]) | MIC (C. albicans 58288 [16]) | MFC (C. albicans sp3902 [17]) | MIC (C. albicans sp3902 [17]) | MFC (C. albicans sp3903 [18]) | MIC (C. albicans sp3903 [18]) | MFC (C. albicans sp3931 [19]) | MIC (C. albicans sp3931 [19]) | MFC (C. albicans sp3876 [20]) | MIC (C. albicans sp3876 [20])
